≈ marks a conversion by molar mass, not a printed value. Read-outs that look alike come from different tables or passages of the source.
Columns and labels:
Assay in all cases: In vitro antibacterial activity, agar dilution
Type in all cases: cell-based
Citrobacter diversis = settings: strain MOR 84-3, Mueller-Hinton agar, read-out: Minimal Inhibitory Concentration
Procedure: (§1) The in vitro antibacterial effects of antibiotics LL-E19085α, LL-E19085β, LL-E19085γ, LL-E19085.zeta. and LL-E19085.eta. were determined by standard agar dilution methods against clinical isolates obtained from medical centers representing various geographical areas in the United States. The inoculum of each culture was approximately 1 to 5×10^4 colony forming units applied with a Steers multiple inocula replicator to plates containing the antibiotic in Mueller-Hinton agar. The agar was supplemented with about 5% sheep blood where required for the growth of the organism.

Peptococcus asacrolytis = settings: strain ATCC 29743; Mueller-Hinton agar; read-out: Minimal Inhibitory Concentration
Procedure: as §1

Serratia marcescens = settings: strain K 84-14, Mueller-Hinton agar, read-out: Minimal Inhibitory Concentration
Procedure: as §1

Staphylococcus aureus = settings: read-out: Minimal Inhibitory Concentration
Procedure: as §1

erratia rubidea = settings: strain UHL 86-4; Mueller-Hinton agar; read-out: Minimal Inhibitory Concentration
Procedure: as §1

Enterococcus = settings: read-out: Minimal Inhibitory Concentration
Procedure: as §1

Klebsiella pneumoniae = settings: strain AD, Mueller-Hinton agar, read-out: Minimal Inhibitory Concentration
Procedure: as §1

Peptococcus magnus = settings: Finegoldia magna, Mueller-Hinton agar, read-out: Minimal Inhibitory Concentration
Procedure: as §1

Pseudomonas aeruginosa = settings: strain 12-4-4, Mueller-Hinton agar, read-out: Minimal Inhibitory Concentration
Procedure: as §1

Bacteroides fragilis = settings: ATCC25285, strain ATCC 25285, Mueller-Hinton agar, read-out: Minimal Inhibitory Concentration
Procedure: as §1

Enterobacter cloacae = settings: strain VGH 84-37, Mueller-Hinton agar, read-out: Minimal Inhibitory Concentration
Procedure: as §1

Alcaligenes ssp. = settings: strain ISG 86-34, Mueller-Hinton agar, read-out: Minimal Inhibitory Concentration
Procedure: as §1

Escherichia coli = settings: read-out: Minimal Inhibitory Concentration
Procedure: as §1

[1] = tested on: Staphylococcus epidermidis; settings: strain IO 83-58, Mueller-Hinton agar, read-out: Minimal Inhibitory Concentration
Procedure: as §1

Clostridium differensis = settings: ATCC17858, strain ATCC 17858, Mueller-Hinton agar, read-out: Minimal Inhibitory Concentration
Procedure: as §1

Streptococcus pneumoniae = settings: read-out: Minimal Inhibitory Concentration
Procedure: as §1

Bacteroides vulgaris = settings: ATCC29327, strain ATCC 29327, Mueller-Hinton agar, read-out: Minimal Inhibitory Concentration
Procedure: as §1

Morganella morganii = settings: strain VGH 84-11, Mueller-Hinton agar, read-out: Minimal Inhibitory Concentration
Procedure: as §1

Proteus vulgaris = settings: strain CMC 84-35, Mueller-Hinton agar, read-out: Minimal Inhibitory Concentration
Procedure: as §1

Bacteroides theta = settings: read-out: Minimal Inhibitory Concentration
Procedure: as §1

[2] = tested on: Staphylococcus saphrophiticus; settings: strain VGH 84-50, Mueller-Hinton agar, read-out: Minimal Inhibitory Concentration
Procedure: as §1

Clostridium perfringen = settings: ATCC13124, strain ATCC 13124, Mueller-Hinton agar, read-out: Minimal Inhibitory Concentration
Procedure: as §1

[3] = tested on: Streptococcus β-hemolyticus; settings: Mueller-Hinton agar
Procedure: as §1

COc1cc2oc3c(c(=O)c2cc1OC)C(=O)c1c(ccc2cc4c(c(O)c12)C(=O)N1C(C)(C4)OC(=O)C1(C)COC(=O)CC(C)C)C3=O (stereo not drawn) [LL-E19085α]
MIC (Citrobacter diversis): > 128 µg/mL
MIC (Peptococcus asacrolytis): ≤ 0.06 µg/mL
MIC (Serratia marcescens): > 128 µg/mL
MIC (Staphylococcus aureus; ATCC25923, strain ATCC 25923, Mueller-Hinton agar): 0.12 µg/mL (≈ 0.179 µM)
MIC (Staphylococcus aureus; ATCC29213, strain ATCC 29213, Mueller-Hinton agar): ≤ 0.06 µg/mL
MIC (Staphylococcus aureus; strain CMC 83-127, Mueller-Hinton agar): ≤ 0.06 µg/mL
MIC (Staphylococcus aureus; strain CMC 83-131, Mueller-Hinton agar): ≤ 0.06 µg/mL
MIC (Staphylococcus aureus; strain CMC 83-132, Mueller-Hinton agar): ≤ 0.06 µg/mL
MIC (Staphylococcus aureus; strain SSC 82-57, Mueller-Hinton agar): ≤ 0.06 µg/mL
MIC (Staphylococcus aureus; strain Smith, Mueller-Hinton agar): 0.12 µg/mL (≈ 0.179 µM)
MIC (Staphylococcus aureus; strain VGH 84-45, Mueller-Hinton agar): ≤ 0.06 µg/mL
MIC (erratia rubidea): > 128 µg/mL
MIC (Enterococcus; strain CMC 83-72, Mueller-Hinton agar): ≤ 0.06 µg/mL
MIC (Enterococcus; strain IO 83-28, Mueller-Hinton agar): ≤ 0.06 µg/mL
MIC (Enterococcus; strain IO 83-40, Mueller-Hinton agar): 0.12 µg/mL (≈ 0.179 µM)
MIC (Enterococcus; strain VGH 84-65, Mueller-Hinton agar): ≤ 0.06 µg/mL
MIC (Enterococcus; strain VGH 84-68, Mueller-Hinton agar): ≤ 0.06 µg/mL
MIC (Klebsiella pneumoniae): > 128 µg/mL
MIC (Peptococcus magnus; ATCC14956, strain ATCC 14956): ≤ 0.06 µg/mL
MIC (Peptococcus magnus; ATCC29328, strain ATCC 29328): ≤ 0.06 µg/mL
MIC (Pseudomonas aeruginosa): > 128 µg/mL
MIC (Bacteroides fragilis): 16 µg/mL (≈ 23.9 µM)
MIC (Enterobacter cloacae): > 128 µg/mL
MIC (Alcaligenes ssp.): > 128 µg/mL
MIC (Escherichia coli; ATCC25922, strain ATCC 25922, Mueller-Hinton agar): > 128 µg/mL
MIC (Escherichia coli; strain No. 311, Mueller-Hinton agar): > 128 µg/mL
MIC [1]: ≤ 0.06 µg/mL
MIC (Clostridium differensis): ≤ 0.06 µg/mL
MIC (Streptococcus pneumoniae; strain K 84-21, Mueller-Hinton agar): ≤ 0.06 µg/mL
MIC (Streptococcus pneumoniae; strain SV-1, Mueller-Hinton agar): ≤ 0.06 µg/mL
MIC (Bacteroides vulgaris): ≤ 0.06 µg/mL
MIC (Morganella morganii): > 128 µg/mL
MIC (Proteus vulgaris): > 128 µg/mL
MIC (Bacteroides theta; ATCC29741, strain ATCC 29741, Mueller-Hinton agar): 4 µg/mL (≈ 5.97 µM)
MIC (Bacteroides theta; ATCC29742, strain ATCC 29742, Mueller-Hinton agar): 4 µg/mL (≈ 5.97 µM)
MIC [2]: ≤ 0.06 µg/mL
MIC (Clostridium perfringen): ≤ 0.06 µg/mL
MIC ([3]; Streptococcus, strain C 203, read-out: Minimal Inhibitory Concentration): ≤ 0.06 µg/mL
Minimal Inhibitory Concentration ([3]; strain VGH 84-60): ≤ 0.06 µg/mL
Minimal Inhibitory Concentration ([3]; strain VGH 84-61): ≤ 0.06 µg/mL
Minimal Inhibitory Concentration ([3]; strain VGH 84-62): ≤ 0.06 µg/mL

Source: patent publication US5096907A, “Antibiotic LL-E19085” (American Cyanamid Company, priority 1991, dated 1992)
